Results from patent US20190054051A1, “DOPA Formulations for Treatments of Parkinson's Disease” (The Board of Trustees of the Leland Stanford Junior …, priority 2017, published 2019).

Columns and labels:
hemiparkinsonian mice = assay: Abnormal Involuntary Movements (AIMs) after chronic L-DOPA, Example 5; assay type: in vivo; details: daily L-DOPA (mixed with benserazide) injections, post-testing 15 days
Experimental: Mice were anesthetized with 5% isoflurane (Isothesia, Henry Schein Animal Health, Dublin, Ohio) in 100% oxygen with a delivery rate of 51/minute until loss of righting reflex and mounted on a stereotaxis. The anesthesia was maintained with 1 to 1.5% isoflurane throughout the surgical procedure. Body temperature was maintained using heating pads; respiration was monitored every 10 minutes. Mice were treated with desipramine HCl (25 mg/kg i/p) 30 minutes before the infusion of 6-hydroxydopamine (6-OHDA). […]
Measurement of Abnormal Involuntary Movements (AIMs) were quantified after chronic L-DOPA administration in hemiparkinsonian mice. In the pretesting sessions, mice were given daily injections of L-DOPA/benserazide (5/10 mg/Kg s/c) for 9 days; AIMs were assessed every 20 minutes for 3 hrs after injection every third day of L-DOPA injections. Total duration of contralateral abnormal movements of the tongue-orofacial muscles and forelimb, twisting of the body (dystonia), and locomotor (rotational) behavior were scored, as illustrated in FIG. 6E. […] After five days' rest, in the post-test phase, mice were administered DOPA-benserazide or one of the four ranitidine formulations (Form IA, IB, IIA, or IIB, as defined above) daily for 15 days; AIMs were again assessed every third day.
Western blots were quantified using band densitometry in Image J software (NIH version). […]

Akt = assay: Western blot of phospho Akt (T308, S473) in striatum; parameters: species or system mice; details: mouse, in vivo
Experimental: After behavioral testing, mice again received their assigned injection and then, 45 minutes later, were decapitated under anesthesia. Tissue samples were processed as follows. Briefly, the brain was dissected, rapidly frozen on dry ice, and stored at −80° C. Striatal tissue was collected from 100 μm coronal slices cut at the level of striatum using a cryostat (Leica CM1950, Leica Biosystems Inc, Buffalo Groove, Ill.). Striatal samples from the intact and the lesioned hemisphere were separately collected in 150p1 of lysis solution (Totally RNA, Ambion, Austin, Tex.). Care was taken to make sure that the tissue samples were collected from similar regions in all the brain samples analyzed, since there are differences in the expression of GRKs from rostral to caudal CPu. Protein concentration was estimated using Bradford reagent (Bio-Rad, Hercules, Calif.). 200m protein was precipitated with 100% methanol and centrifuged at 10000 g for 10 mins in a table top centrifuge. The pellet was re-suspended in 90% methanol and centrifuged for an additional 10 mins at 10000 g. The supernatant was discarded and the pellet was air dried and dissolved in 400 μL of β-mercaptoethanol containing 2× Laemmli sample buffer (Biorad, Hercules, Calif.), for a final concentration of 0.5 mg/mL. These samples were stored at −80° C. until use. Samples were electrophoresed through 10% polyacrylamide gels and transferred on to Immobilon-P PVDF membranes (Millipore, Bedford, Mass.) and processed. […] Western blots were quantified using band densitometry in Image J software (NIH version). […] Results are represented as group mean±SEM and analyzed using one-way or repeated-measures ANOVA (RM-ANOVA), with post hoc Bonferroni tests. The mouse cylinder test was analyzed with RM-ANOVA, with group (DOPA and DOPA-ranitidine formulations) as a between-group factor and saline vs. DOPA treatment as a within-group factor. AIMs scores were analyzed using the Kruskal Wallis test for pre-testing (DOPA injected animals) and the Mann-Whitney U test for the post-testing sessions (DOPA vs DOPA-ranitidine formulations). […]

Structure (SMILES)	AIMs over the course of daily administration (hemiparkinsonian mice)	Akt phosphorylation at Ser473 (Akt)	Akt phosphorylation at Thr308 in the lesioned striatum (Akt)
N[C@@H](Cc1ccc(O)c(O)c1)C(=O)O [L-DOPA, L-3,4-dihydroxyphenylalanine]	increasing AIMs	not statistically significant	elevated in the lesioned striatum
CN/C(=C\[N+](=O)[O-])NCCSCc1ccc(CN(C)C)o1 [Ranitidine, N-(2-[(5-[(dimethylamino)methyl]furan-2-yl)methylthio]ethyl)-N′-methyl-2-nitroethene-1,1-diamine]			no effect
